Laboratory results: article PMC8279492, “Quinolinonyl Non-Diketo Acid Derivatives as Inhibitors of HIV-1 Ribonuclease H and Polymerase Functions of Reverse Transcriptase” (Journal of Medicinal Chemistry, 2021)
Where two headings read alike, the source gives them in different places.

What was measured:
[1] = target: T1, HIV-1 RT-associated RNase H activity (Human immunodeficiency virus type 1 group M subtype B, UniProt P03366); assay: biochemical; assay type: biochemical
T1 construct: His-tagged p66/p51 HIV-1 RT group M subtype B; His; made in house; host or cells: Escherichia coli M15
Protocol: (11) and β-thujaplicinol (BTP) used as positive controls.
(§1) His-tagged p66/p51 HIV-1 RT group M subtype B coded in a p6HRT-prot plasmid was expressed in the Escherichia coli strain M15.[65] Heterodimeric RTs were expressed essentially and purified as described.[66]
(§2) The HIV-1 RT-associated RNase H activity was measured as described.[68] Briefly, the reaction was carried out in a black 96-well plate in a total volume of 100 μL. […] Experiments were performed in duplicate and replicated at least two times. Data were analyzed as described.[36]

K540A HIV-1 RT RNase H = target: T2, K540A HIV-1 RT RNase H (Human immunodeficiency virus type 1 group M subtype B, UniProt P03366, K1139A); assay: RNase H assay, point-mutant K540A RT; assay type: biochemical
T2 construct: Amino acid substitutions were introduced into the p66 HIV-1 RT subunit of a HIV-1 RT; His; made in house; host or cells: Escherichia coli M15
Protocol: (§3) An activity curve was performed for all of the enzymes (Figure S1), and a concentration was chosen in the linear dose-response range to perform the enzymatic-inhibition assays.
(§4) Amino acid substitutions were introduced into the p66 HIV-1 RT subunit of a HIV-1 RT using a QuikChange mutagenesis kit, following the manufacturer’s instructions (Agilent Technologies Inc., Santa Clara, CA).
as §2

Q475A HIV-1 RT RNase H = target: T3, Q475A HIV-1 RT RNase H (Human immunodeficiency virus type 1 group M subtype B, UniProt P03366, Q1074A); assay: RNase H assay, point-mutant Q475A RT; assay type: biochemical
T3 construct: Amino acid substitutions were introduced into the p66 HIV-1 RT subunit of a HIV-1 RT; His; made in house; host or cells: Escherichia coli M15
Protocol: as §3, §4, §2

HIV-1 RT-RDDP activity = target: T4, HIV-1 RT-RDDP activity (Human immunodeficiency virus type 1 group M subtype B, UniProt P03366); assay: Polymerase assay (RNA-dependent DNA polymerase); assay type: biochemical
T4 construct: His-tagged p66/p51 HIV-1 RT group M subtype B; His; made in house; host or cells: Escherichia coli M15
Protocol: as §1
The HIV-1 RT-associated RNA-dependent DNA polymerase activity was measured as described.[65] Briefly, the reaction was carried out in a black 96-well plate in a total volume of 25 μL. Serial dilutions of compounds were added to the reaction mix containing 60 mM Tris HCl buffer pH 8.1, 8 mM MgCl2, 60 mM KCl, 13 mM DTT, 2.5 mM poly(A)-oligo(dT), and […].

R448A HIV-1 RT RNase H = target: T5, R448A HIV-1 RT RNase H (Human immunodeficiency virus type 1 group M subtype B, UniProt P03366, R1047A); assay: RNase H assay, point-mutant R448A RT; assay type: biochemical
T5 construct: Amino acid substitutions were introduced into the p66 HIV-1 RT subunit of a HIV-1 RT; His; made in house; host or cells: Escherichia coli M15
Protocol: as §3, §4, §2

Y501A HIV-1 RT RNase H = target: T6, Y501A HIV-1 RT RNase H (Human immunodeficiency virus type 1 group M subtype B, UniProt P03366, Y1100A); assay: RNase H assay, point-mutant Y501A RT; assay type: biochemical
T6 construct: Amino acid substitutions were introduced into the p66 HIV-1 RT subunit of a HIV-1 RT; His; made in house; host or cells: Escherichia coli M15
Protocol: as §3, §4, §2

HIV-1 IN = HIV-1 IN (Human immunodeficiency virus type 1 group M subtype B, UniProt P12497); assay: biochemical
Protocol: His-tagged NL4-3 IN was expressed from a pET15b plasmid in the E. coli BL21 pLys strain. Recombinant protein was purified as previously described[67] following a batch preparation on Ni-NTA beads (Qiagen, Paris, France).
Both oligonucleotides were purchased from Integrated DNA Technologies, Inc. (Coralville, IA), and the gel was purified in-house. ST reactions were performed by adding molecules or an equivalent volume of 100% dimethyl sulfoxide (DMSO, used as the drug solvent) to a mixture of 20 nM duplex DNA substrate and 400 nM IN in 50 mM MOPS pH 7.2, 7.5 mM MgCl2, and 14 mM 2-mercaptoethanol. Mixtures were incubated at 37 °C for 2 h, and the reaction was quenched by addition of an equal volume of loading buffer [formamide containing 1% sodium dodecyl sulfate (SDS), 0.25% bromophenol blue, and xylene cyanol]. […] Dried gels were visualized using a FLA5000 (Fuji Photo Film, Tokyo, Japan). Densitometric analyses were performed using ImageQuant 5.1 software from GE Healthcare.

K451A HIV-1 RT RNase H = target: T7, K451A HIV-1 RT RNase H (Human immunodeficiency virus type 1 group M subtype B, UniProt P03366, K1050A); assay: RNase H assay, point-mutant K451A RT; assay type: biochemical
T7 construct: Amino acid substitutions were introduced into the p66 HIV-1 RT subunit of a HIV-1 RT; His; made in house; host or cells: Escherichia coli M15
Protocol: as §3, §4, §2

N474A HIV-1 RT RNase H = target: T8, N474A HIV-1 RT RNase H (Human immunodeficiency virus type 1 group M subtype B, UniProt P03366, N1073A); assay: RNase H assay, point-mutant N474A RT; assay type: biochemical
T8 construct: Amino acid substitutions were introduced into the p66 HIV-1 RT subunit of a HIV-1 RT; His; made in house; host or cells: Escherichia coli M15
Protocol: as §3, §4, §2

[2] = Compounds' toxicity, CellTiter 96 AQueous One Solution Cell Proliferation Assay; assay type: cell-based; settings: human
Protocol: (§5) HIV-1 replication was monitored using HeLa-CD4-LTR-β-gal reporter cells as previously described.[69] Briefly, β-galactosidase activity was monitored 24 h post infection using a replication-competent HIV produced in-house (H9-laï coculture) and a serial dilution of molecules or an equivalent volume of DMSO. In parallel, compounds’ toxicity was determined at 24 h in the same cell line using CellTiter 96 AQueous One Solution Cell Proliferation Assay (Promega, France).

HIV-1 replication = HIV-1 replication in HeLa-CD4-LTR-β-gal reporter cells; assay type: cell-based; settings: for EC50: Human immunodeficiency virus 1, 24 h, read-out: antiviral activity EC50
Protocol: as §5

W535A HIV-1 RT RNase H = target: T9, W535A HIV-1 RT RNase H (Human immunodeficiency virus type 1 group M subtype B, UniProt P03366, W1134A); assay: RNase H assay, point-mutant W535A RT; assay type: biochemical
T9 construct: Amino acid substitutions were introduced into the p66 HIV-1 RT subunit of a HIV-1 RT; His; made in house; host or cells: Escherichia coli M15
Protocol: as §3, §4, §2

RNase H = settings: cited from earlier work
IN = settings: read-out: IN inhibitory activity IC50; cited from earlier work
[3] = anti-RH activity (IC50 ± SD), HIV-1 RT-associated RNase H activity, dose-response curves, no preincubation
[4] = wt (RH IC50, uM), supplement CSV, mutagenesis study

Structure (SMILES)	IC50 [1, 3]	IC50 [1, 4]	IC50 (K540A HIV-1 RT RNase H)	IC50 (Q475A HIV-1 RT RNase H)	IC50 (HIV-1 RT-RDDP activity)	IC50 (R448A HIV-1 RT RNase H)	IC50 (Y501A HIV-1 RT RNase H)	IC50 (HIV-1 IN)	IC50 (K451A HIV-1 RT RNase H)	IC50 (N474A HIV-1 RT RNase H)	CC50 at 24 h ([2]; HeLa-CD4-LTR-β-gal cells, CC50 (cytotoxic concentration 50%), 24 h)	EC50 (HIV-1 replication)	IC50 (W535A HIV-1 RT RNase H)	CC50 at 24 h ([2]; HeLa-CD4-LTR-β-gal reporter cells, CC50 (cytotoxic concentration 50%), HeLa-CD4-LTR-β-gal cells, 24 h)	CC50 at 24 h ([2]; HeLa-CD4-LTR-β-gal reporter cells, supplement CSV, read-out: CC50)	SI (selectivity index = CC50/EC50) (HIV-1 replication; CC50/EC50)	Fold increase in IC50 compared to wt RT, W535A (W535A HIV-1 RT RNase H)	W535A (Fold) (W535A HIV-1 RT RNase H; supplement CSV, vs wt)	IC50 (RNase H)	IC50 (IN)
O=C(O)c1cn(Cc2ccc(F)cc2)c2ccc(OCc3cccc4ccccc34)cc2c1=O [4o, 1-(4-Fluorobenzyl)-6-(naphthalen-1-ylmethoxy)-4-oxo-1,4-dihydroquinoline-3-carboxylic Acid]	1.51 ± 0.21 µM	5.2 ± 1.1 µM	31.6 ± 1.2 µM	> 100 µM	11.4 ± 2.6 µM	19.6 ± 1.24 µM	> 100 µM	> 100 µM	11.8 ± 1.2 µM	85.8 ± 1.6 µM	51 ± 11 µM	8.4 ± 0.7 µM	> 100 µM							
O=C(O)c1cn(Cc2ccc(F)cc2)c2ccc(OCc3ccc(OCc4ccccc4)cc3)cc2c1=O [4t, 6-((4-(Benzyloxy)benzyl)oxy)-1-(4-fluorobenzyl)-4-oxo-1,4-dihydroquinoline-3-carboxylic Acid]	7.48 ± 0.28 µM	1.9 ± 0.4 µM	2 ± 1.2 µM	15.6 ± 1.6 µM	2.2 ± 0.1 µM	2.2 ± 1.3 µM	> 100 µM	> 100 µM	2.9 ± 1.3 µM	1.16 ± 1.41 µM		1.73 ± 0.47 µM	> 100 µM	> 100 µM	> 16 µM	>57.8	> 52.4 fold	>52.4		
O=C(O)/C(O)=C/C(=O)c1cn(Cc2ccc(F)cc2)c2cc(N3CCCC3)ccc2c1=O [compound 2]																			5.1 µM	0.028 µM
